# Calls of active or inactive are those of the source.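 How the source made its calls: active means mean IC50 for reducing PEG3 promoter reporter signal at or below a set limit, with IC50 above the limit in both counter screens; inactive means the rest, including counter screen hits.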
# Assays:
# Assay in all cases: inhibition of PEG-3 promoter-driven reporter – cell-based, HeLa, luciferase, CREF/GAPDH counter-screen panel, dose response (AID 624167)
# [1] = system: PEG-3; conditions: HeLa PEG-Prom luciferase reporter, overnight, CREF/GAPDH counter-screens
# [2] = system: Rat fibroblasts (CREF); conditions: CREF/GAPDH counter-screens
# [3] = target: PEG-3 (UniProt Q6IN02); conditions: HeLa PEG-Prom luciferase reporter, overnight, CREF/GAPDH counter-screens, mean of runs
# [4] = run 1, dose range 1, individual replicate IC50 per panel
# [5] = run 2, dose range 1, individual replicate IC50 per panel
# Chain of PEG-3 (UniProt Q6IN02) (Q6IN02 whole entry, looked up): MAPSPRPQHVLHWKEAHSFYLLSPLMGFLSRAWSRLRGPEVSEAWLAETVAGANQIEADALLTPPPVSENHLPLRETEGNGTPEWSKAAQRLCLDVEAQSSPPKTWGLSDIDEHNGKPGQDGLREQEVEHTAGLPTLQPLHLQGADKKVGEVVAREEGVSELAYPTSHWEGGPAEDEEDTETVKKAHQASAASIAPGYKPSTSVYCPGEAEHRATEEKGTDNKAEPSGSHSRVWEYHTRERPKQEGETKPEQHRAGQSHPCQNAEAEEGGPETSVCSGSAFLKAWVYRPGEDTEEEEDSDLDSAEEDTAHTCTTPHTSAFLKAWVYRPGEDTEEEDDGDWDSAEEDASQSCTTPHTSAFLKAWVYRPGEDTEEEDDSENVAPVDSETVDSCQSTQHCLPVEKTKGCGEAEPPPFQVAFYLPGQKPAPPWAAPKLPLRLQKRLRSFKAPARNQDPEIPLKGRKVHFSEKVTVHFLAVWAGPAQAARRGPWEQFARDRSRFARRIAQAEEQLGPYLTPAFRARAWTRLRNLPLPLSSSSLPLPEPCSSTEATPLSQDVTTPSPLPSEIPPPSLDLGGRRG
Structure (SMILES),IC50 [3],"IC50 [1, 4] [µM]","IC50 [1, 5] [µM]",IC50 ([2]; mean of runs) [µM],"IC50 [2, 4] [µM]","IC50 [2, 5] [µM]"
Cc1cc(C(=O)CN2C(=O)c3ccccc3S2(=O)=O)c(C)n1-c1ccccc1,3.36 µM,2.98,3.75,7.33,6.79,7.88
CN=c1scc(-c2cccs2)n1/N=C/c1ccccc1O,inactive,0.26,> 100,5.44,5.28,5.6
O=C(NCCc1ccccc1F)c1ccc2c(c1)OCCO2,0.881 µM,1.02,0.74,1.18,1.07,1.3
Oc1c(Br)cc(Br)c2cccnc12,6.72 µM,4.4,9.05,9.01,11.8,6.27
COc1cc(SC)ccc1C(=O)Nc1ncc(C)s1,3.9 µM,3.02,4.77,1.94,1.58,2.3
COc1cc(SC)ccc1C(=O)Nc1nc2ccccc2[nH]1,inactive,0.377,> 100,0.296,0.305,0.288
CCOc1ccc(OCc2cccc(C(=O)O)c2)cc1,0.359 µM,0.232,0.487,3.74,3.88,3.6
Cc1cccc(C)c1NC(=O)c1nc(S(=O)(=O)Cc2ccccc2)ncc1Cl,8.69 µM,10.1,7.29,14.6,13,16.1
COc1ccc(-c2cc3nc(C)n(N)c(=O)c3s2)cc1,0.473 µM,0.657,0.288,1.09,1.01,1.16
Cc1ccc(C(=O)Nc2nc3ccccc3[nH]2)cc1,3.37 µM,2.02,4.71,0.521,0.523,0.519
COc1cccc2nc3c(C(=O)NCCN(C)C)cccc3cc12,9.14 µM,11.2,7.03,8.72,12,5.44
COc1cc(SC)ccc1C(=O)Nc1nc(C)cs1,2.11 µM,1.69,2.52,0.516,0.542,0.49
CC(=O)Nc1ccc(NC(=O)c2nc(S(=O)(=O)Cc3cccc(C)c3)ncc2Cl)cc1,7.65 µM,9.47,5.84,6.67,4.5,8.85

# Second part, led by results:
IC50 [3],Structure (SMILES),"IC50 [1, 4] [µM]","IC50 [1, 5] [µM]",IC50 ([2]; mean of runs) [µM],"IC50 [2, 4] [µM]","IC50 [2, 5] [µM]"
0.865 µM,COC(=O)Cc1[nH]n(-c2nc3ccccc3s2)c(=O)c1C(C)=Nc1ccc(C)cc1,0.98,0.751,14.8,25.2,4.52
5.19 µM,O=C(N/N=C/c1cccs1)c1n[nH]c2c1CCCC2,3.45,6.93,6,5.1,6.91
10.5 µM,CN[C@H]1C[C@H]2c3[nH]c4ccc(-c5ccc(OC)cc5)cc4c3CCN2C(=O)[C@H]1[C@H](C)O,12.5,8.39,16.1,16.9,15.3
inactive,CN1CCN(c2ccc(-c3ccc4ccccc4n3)cc2)CC1,7.84,> 100,2.36,2.93,1.79
1.01 µM,COC1=CC(=O)c2c(ccc3ncnc(N)c23)C1=O,1.48,0.547,0.935,0.875,0.995
0.573 µM,O=C(CN1C(=O)c2ccccc2S1(=O)=O)c1ccc2c(c1)OCCO2,0.73,0.415,1.61,1.28,1.94
inactive,O=c1c2ccccc2sc2ccc(C#CC3(O)CCCCC3)cc12,2.93,> 100,1.81,1.36,2.27
4.06 µM,Fc1ccc(-c2nnc(NC3=NCCCCC3)o2)cc1,4.11,4,3.58,3.94,3.23
10.1 µM,O=C(CCl)Nc1ccccc1Sc1ccc(Cl)cc1,13,7.06,8.11,8.04,8.18
6.12 µM,CN(C)c1ccc(/C=C/c2nc3ccccc3s2)cc1,4.73,7.51,1.56,1.17,1.95
4.13 µM,Cc1nc(SCC(=O)Nc2nc3ccccc3s2)c(C#N)c(C)c1C,8.05,< 0.2,7.9,0.232,15.6

# From PubChem BioAssay AID624167 (Sanford-Burnham Center for Chemical Genomics, 2012)
